Data taken from patent publication US12662707B2, “MYC amplification drives resistance to pan-RAS inhibitors in pancreatic cancer” (The Trustees of Columbia University in the City of New York, priority 2024, dated 2026).

Legend:
[1] = tested on: human PDAC explants; experiment: Ex vivo human PDAC explants, IHC for pERK and CC3; assay type: cell-based
Procedure: Explant culture sponges and optimized culture media were prepared as previously described in Hasselluhn and Decker-Farrell et al.^54. Human tissue samples were obtained from de-identified patients undergoing resection surgeries, primarily pancreaticoduodenectomy (Whipple) or distal pancreatectomy, at New York-Presbyterian/Columbia University Irving Medical Center. Upon receipt of a resected human PDAC fragment (n=4), each tissue sample was cut into […] slices using a Compresstome. Any tumor tissue remaining after sectioning was fixed in 4% paraformaldehyde (Santa Cruz Biotechnology, sc-281692) for 2 hours, at 4° C. as the Day 0 control. […] Each well of a 24 well plate contained one explant slice placed between bottom sponge (1 cm^3) and a top sponge (2-3 mm thick). After 24 hours culture, explants were collected and fixed in 4% PFA for 2 hours. Fixed tissue was then transferred to 70% ethanol and paraffin embedded for long-term storage and further analysis. All tissues were fixed for up to 24 hours using 10% neutral buffered formalin and then moved to 70% ethanol for long term storage. All stainings were performed on 4-μm tissue sections. Sections were deparaffinized using a Leica XL ST5010 autostainer, after which slides were subjected to heat-activated epitope retrieval. […] Slides were further blocked in serum for 1 hour, and primary antibodies were added for overnight incubation at 4° C. […] Following incubation, ImmPACT DAB peroxidase (Vector Laboratories, SK-4100) was used to develop the stain and hematoxylin was used as nuclear counterstain. Stained slides were imaged at 40× magnification. Quantitative analyses of IHC images were performed using ImageJ.

[2] = tested on: murine Dusp6 mRNA in normal colon and skin; experiment: PK/PD in normal colon and skin of CDX tumor-bearing mice (Dusp6 qRT-PCR); assay type: in vivo, mouse
Procedure: Tumor-bearing animals were randomized and assigned into groups (n=3-10/group). Vehicle or RMC-7977 was administered via oral gavage daily at 10 mg/kg and animals were treated for 21-28 days. Studies were terminated early if tumor burden reached humane endpoint. Body weights were collected twice a week during the study. Means±s.e.m were plotted in the waterfall plots. For the single-dose pharmacokinetic/pharmacodynamic (PK/PD) study, mice were randomized and assigned into groups (n=3-6/dose/timepoint). A single dose of RMC-7977 was administered orally at 10 mg/kg, 25 mg/kg and 50 mg/kg. […]
Whole blood, tumor, colon and skin tissue concentrations of RMC-7977 were determined using liquid chromatography-tandem mass spectrometry (LC-MS/MS) methods. […] After thorough mixing and centrifugation, the supernatant was directly analyzed on a Sciex 6500+ triple quadrupole mass spectrometer equipped with an ACQUITY or Shimadzu UPLC system. […] RMC-7977 and IS (verapamil or terfenadine) were detected by positive electrospray ionization using multiple reaction monitoring (RMC-7977: m/z 865.4/706.4 or m/z 865.3/833.5; verapamil: m/z 455.2/164.9; terfenadine: m/z 472.3/436.4). The lower limit of quantification was 0.5 ng/mL or 2.0 ng/mL for blood, tumor, and other tissue. […]

[3] = tested on: normal tissues (colon, skin, liver, intestines, lungs, kidneys); experiment: IHC and histopathology of normal tissues of KPC mice; assay type: in vivo, mouse
Procedure: Tumor formation in KPC mice was monitored by bi-weekly palpation. […] Treatments were performed every other day via oral gavage for 1 week. […] Following two consecutive ultrasounds, RMC-7977-treated animals were sacrificed either 4 (n=7) or 24 hours (n=4) after last dose and Vehicle-treated animals were sacrificed between 4-24 hours post last dose. Tissue was harvested and preserved as previously described (See Xenograft studies section). Additional group of KPC mice was also treated with a single dose of RMC-7977 (n=10) or Vehicle (n=3) and tissues were harvested at 4 or 24 hours post dose as previously described. All tissues were fixed for up to 24 hours using 10% neutral buffered formalin and then moved to 70% ethanol for long term storage. All stainings were performed on 4-μm tissue sections. Sections were deparaffinized using a Leica XL ST5010 autostainer, after which slides were subjected to heat-activated epitope retrieval. […] Slides were further blocked in serum for 1 hour, and primary antibodies were added for overnight incubation at 4° C. […] Following incubation, ImmPACT DAB peroxidase (Vector Laboratories, SK-4100) was used to develop the stain and hematoxylin was used as nuclear counterstain. Stained slides were imaged at 40× magnification. Quantitative analyses of IHC images were performed using ImageJ.

[4] = explants treated for 24 hours, 10-100 nM

Q: With `CCn1c(-c2cc(N3CCN(C4CC4)CC3)cnc2[C@H](C)OC)c2c3cc(ccc31)-c1csc(n1)C[C@H](NC(=O)[C@H]1[C@@H]3COC[C@@H]31)C(=O)N1CCC[C@H](N1)C(=O)OCC(C)(C)C2` [RMC-7977] as the compound, how does the “apoptosis marker cleaved caspase 3 (CC3) (IHC)” value [1, 4] read?
A: increase

Q: And the “pERK expression (IHC)” value [1, 4]?
A: concentration-dependent decrease

Q: And the “concentration of maximal changes in pERK and CC3” value ([1]; highest concentration tested)?
A: 100 nM

Q: And the “response of the KRASWT explant model” value ([1]; one of the four explant models, KRASWT)?
A: sensitive

Q: What about the “fold lower EC50 in Capan-1 tumors compared to colon” value ([2]; normal colon) of the same compound?
A: ~22 fold

Q: What about the “fold lower EC50 in Capan-1 tumors compared to skin” value ([2]; normal skin) of the same compound?
A: ~8 fold

Q: And the “effects on apoptosis (CC3) and proliferation (Cyclin A2) in colon and skin” value ([3]; SD, 1 Wk and EP KPC mice, all timepoints)?
A: absent or negligible

Q: And the treatment-associated histopathological feature ([3]; proximal intestines of half the treated animals, no diarrhea or weight loss)?
A: modest increase in apoptosis
